Measured values as given in article PMC11432771, “Sphaerococcenol A Derivatives: Design, Synthesis, and Cytotoxicity” (Marine Drugs, 2024).

Experiments:
[1] = system: A549 cells; assay: MTT cytotoxicity assay, A549 cells; format: cell-based; conditions: for IC50: MTT assay, 24 h, 1–100 µM, 95% confidence interval in parentheses; for SI (A549): SI = IC50 of FL83B/IC50 on A549
Description: (§1) Three malignant cell lines (between passages 10 and 25) obtained from the DMSZ-German Collection of Microorganisms and Cell Cultures GmbH biobank were used: A549 (lung carcinoma), DU-145 (prostate carcinoma), and MCF-7 (breast adenocarcinoma). MCF-7 (ACC-115) and DU-145 (ACC-261) cells were maintained in RPMI 1640 medium (Merck, Darmstadt, Germany) supplemented with 10% FBS (fetal bovine serum, Biowest, Riverside, MO, USA) and 1% antimycotic and antibiotic solution (Biowest, Nuaillé, France). A549 (ACC-107) cells were maintained in DMEM:F12 medium (Merck, Darmstadt, Germany) and also supplemented with 10% FBS (Biowest, Riverside, MO, USA) and a 1% solution of antimycotic and antibiotic (Biowest, Nuaillé, France). FL83B hepatocytes (FL83B; ATCC: CLR-2390) were used as the non-malignant cell line. The cells were cultured in F-12K medium supplemented with FBS 10% (Biowest, Riverside, MO, USA) and 1% solution of antimycotic and antibiotic (Biowest, Nuaillé, France).
(§2) The effects of sphaerococcenol A and its analogues (1–6) on the viability of malignant cell lines were studied through three distinct assays, 3-(4,5-dimethylthiazol-2-yl)-2,5-diphenyltetrazolium bromide (MTT), lactate dehydrogenase (LDH) activity, and calcein-AM, targeting different cellular biomarkers. Untreated cells with DMSO (<0.2%) were used as control, and saponin (0.4 mg/mL) (Sigma, Darmstadt, Germany) was used as the positive control for cell death.
(§3) The cells were incubated with compounds at different concentrations (1–100 µM) for 24 h. After the 24 h was over, cells were washed with PBS buffer (pH = 7.4) and incubated for 60 min with the MTT solution (1.2 mM) previously prepared in a fresh medium. The MTT solution was then removed, and 100 µL of dimethyl sulfoxide (DMSO) was added to dissolve the formazan crystals. The results were expressed as the half-maximal inhibitory concentration (IC50) after reading the absorbance at 570 nm using a microplate reader (Synergy H1, BioTek Instruments, USA). The selectivity index (SI) was calculated as the ratio of the IC50 value for a normal cell line to the IC50 value for the corresponding tumor cell line (SI = IC50 of non-malignant cell line/IC50 of malignant cell line), where an SI ≥ 2 of a compound represents a selective toxicity towards malignant cells, while an SI value < 2 is considered generally toxic.
(§4) The data were obtained from at least three independent experiments (n = 3) carried out in triplicate and presented as mean ± standard error of the mean (SEM). The data were checked for normality and homoscedasticity. […] A one-way analysis of variance (ANOVA) with Dunnett′s multiple comparison of group means was employed to determine significant differences to the control treatment and/or a two-way ANOVA with Bonferroni’s test. All other post hoc analyses were conducted using Tukey’s test. The differences were considered significant at a level of 0.05 (p < 0.05). The inhibitory concentrations (IC50) were determined by means of the equation y = 100/(1 + 10(x − logIC50)). All data were analyzed using the software SPSS v28.0.0.0 (SPSS Inc., Chicago, IL, USA) and GraphPad v8.0.2 (GraphPad Software, Inc., La Jolla, CA, USA).

[2] = system: DU-145 cells; assay: MTT cytotoxicity assay, DU-145 cells; format: cell-based; conditions: for SI (DU-145): SI = IC50 of FL83B/IC50 on DU-145; for IC50: Homo sapiens, DU-145, MTT assay, 24 h, 1–100 µM, 95% confidence interval in parentheses
Description: as §1, §2, §3, §4

[3] = system: MCF-7 cells; assay: MTT cytotoxicity assay, MCF-7 cells; format: cell-based; conditions: for IC50: MTT assay, 24 h, 1–100 µM, 95% confidence interval in parentheses; for SI (MCF-7): SI = IC50 of FL83B/IC50 on MCF-7
Description: as §1, §2, §3, §4

[4] = system: FL83B hepatocytes; assay: MTT cytotoxicity assay, non-malignant FL83B hepatocytes; format: cell-based; conditions: non-malignant cell line, 24 h, 1–100 µM, 95% confidence interval in parentheses
Description: Three malignant cell lines (between passages 10 and 25) obtained from the DMSZ-German Collection of Microorganisms and Cell Cultures GmbH biobank were used: A549 (lung carcinoma), DU-145 (prostate carcinoma), and MCF-7 (breast adenocarcinoma). MCF-7 (ACC-115) and DU-145 (ACC-261) cells were maintained in RPMI 1640 medium (Merck, Darmstadt, Germany) supplemented with 10% FBS (fetal bovine serum, Biowest, Riverside, MO, USA) and 1% antimycotic and antibiotic solution (Biowest, Nuaillé, France). A549 (ACC-107) cells were maintained in DMEM:F12 medium (Merck, Darmstadt, Germany) and also supplemented with 10% FBS (Biowest, Riverside, MO, USA) and a 1% solution of antimycotic and antibiotic (Biowest, Nuaillé, France). FL83B hepatocytes (FL83B; ATCC: CLR-2390) were used as the non-malignant cell line. The cells were cultured in F-12K medium supplemented with FBS 10% (Biowest, Riverside, MO, USA) and 1% solution of antimycotic and antibiotic (Biowest, Nuaillé, France). […]
as §3, with “After the 24 h was over, cells were washed with PBS buffer (pH = 7.4) and incubated for 60 min with the MTT solution (1.2 mM) previously prepared in a fresh medium. The MTT solution was then removed, and 100 µL of dimethyl sulfoxide (DMSO) was added to dissolve the formazan crystals.” left out
The data were obtained from at least three independent experiments (n = 3) carried out in triplicate and presented as mean ± standard error of the mean (SEM). […] The inhibitory concentrations (IC50) were determined by means of the equation y = 100/(1 + 10(x − logIC50)). All data were analyzed using the software SPSS v28.0.0.0 (SPSS Inc., Chicago, IL, USA) and GraphPad v8.0.2 (GraphPad Software, Inc., La Jolla, CA, USA).

[5] = system: A549, DU-145, and MCF-7 malignant cells; assay: MTT cytotoxicity assay, stated across the three malignant cell lines; format: cell-based; conditions: SI = IC50 of FL83B/IC50 of malignant cell line; over A549, DU-145, MCF-7
Description: Three malignant cell lines (between passages 10 and 25) obtained from the DMSZ-German Collection of Microorganisms and Cell Cultures GmbH biobank were used: A549 (lung carcinoma), DU-145 (prostate carcinoma), and MCF-7 (breast adenocarcinoma). MCF-7 (ACC-115) and DU-145 (ACC-261) cells were maintained in RPMI 1640 medium (Merck, Darmstadt, Germany) supplemented with 10% FBS (fetal bovine serum, Biowest, Riverside, MO, USA) and 1% antimycotic and antibiotic solution (Biowest, Nuaillé, France). […]
as §3, with “After the 24 h was over, cells were washed with PBS buffer (pH = 7.4) and incubated for 60 min with the MTT solution (1.2 mM) previously prepared in a fresh medium. The MTT solution was then removed, and 100 µL of dimethyl sulfoxide (DMSO) was added to dissolve the formazan crystals.” left out
The data were obtained from at least three independent experiments (n = 3) carried out in triplicate and presented as mean ± standard error of the mean (SEM). […] The inhibitory concentrations (IC50) were determined by means of the equation y = 100/(1 + 10(x − logIC50)). […]

[6] = system: U373 cells; design: method as in PMID 20045651; conditions: inhibiting the cell entry into the mitosis phase; cited from earlier work
[7] = system: MCF-7 cells; design: method as in PMID 35378501; conditions: previous studies; cited from earlier work

CCCSC1CC(=O)[C@@](C)(O)[C@H]2[C@@H]3C=CC[C@@H](C(C)C)[C@@]3(CBr)CC[C@]12C (single isomer, unassigned) [Compound 2]
IC50 ([1]; Homo sapiens, A549, 24 h): 33.8 µM
SI (A549) [1]: 1.4
SI (DU-145) [2]: 1.9
IC50 [3]: 70.3 µM
SI (MCF-7) [3]: 0.7

CCCSC1CC(=O)[C@@](C)(O)[C@H]2[C@@H]3C=CC[C@@H](C(C)C)[C@@]3(CBr)CC[C@]12C (single isomer, unassigned) [Compound 3]
IC50 [1]: 22.5 µM
SI (A549) [1]: 2.5
SI (DU-145) [2]: 2.8
IC50 [3]: 14.3 µM
SI (MCF-7) [3]: 4.0
IC50 [4]: 56.7 µM

CC(C)[C@@H]1CC=C[C@H]2[C@@H]3[C@](C)(O)C(=O)CC(SCc4ccccc4)[C@@]3(C)CC[C@]12CBr (stereo partly drawn) [Compound 4, (4S,4aS,4bS,8S,8aS,10aS)-1-(Benzylthio)-8a-(bromomethyl)-4-hydroxy-8-isopropyl-4,10a-dimethyl-1,4,4a,4b,7,8,8a,9,10,10a-decahydrophenanthren-3(2H)-one]
IC50 ([1]; Homo sapiens, A549, 24 h): 35.5 µM
SI (A549) [1]: 1.1
IC50 [2]: 70.1 µM
SI (DU-145) [2]: 0.6
SI (MCF-7) [3]: 1.3
IC50 [4]: 40.3 µM
selectivity index across the malignant cell lines [5]: 0.6–1.3

CC(C)C1CC=CC2C3C(C)(CCC(O)C3(C)O)CCC21CBr (stereo not drawn) [Compound 5]
SI (A549) [1]: 3.7
SI (DU-145) [2]: 4.4
SI (MCF-7) [3]: 2.6

CC(C)C1CC=CC2C3C(C)(CCC(O)C3(C)O)CCC21CBr (stereo not drawn) [Compound 6]
SI (A549) [1]: 1.9
SI (DU-145) [2]: 3.1
SI (MCF-7) [3]: 2.9

CC(C)[C@@H]1CC=C[C@H]2[C@H]3[C@@](C)(C=CC(=O)[C@@]3(C)O)CC[C@]12CBr [Sphaerococcenol A]
IC50 ([1]; Homo sapiens, A549, 24 h): 15 µM
SI (A549) [1]: 2.5
IC50 [2]: 3.75 µM
SI (DU-145) [2]: 10.0
IC50 ([3]; Homo sapiens, MCF7, 24 h): 6.53 µM
SI (MCF-7) [3]: 5.7
IC50 [4]: 37.4 µM
effect on human apoptosis-resistant U373 cells [6]: cytostatic effect
events accompanying decrease in MCF-7 cell viability [7]: production of hydrogen peroxide, changes in mitochondrial membrane potential, the stimulation of Caspase-9 activity, and nuclear morphology alterations
